Data reported in US20210267739A1, “DEVICES AND METHODS FOR CONTINUOUS DRUG DELIVERY VIA THE MOUTH” (SynAgile Corporation, priority 2013, published 2021).
Values belong to the molecule of their own block, whether it stands above or below them.

Tests used:
[1] = cited from earlier work; for Approximate Pressure, bars at 37° C.: vapor pressure of propellant liquid at 37° C.
[2] = Vapor pressures of propellant liquids; format: physicochemical
Description: For propellant-driven pumps, it is preferred to use propellants whose pressure increases by less than about 80%, 60%, or 40% when the temperature is raised from 37° C. to 55° C. As examples, the pressure of Dupont Dymel HFC-134a (1,1,1,2-tetrafluoroethane) increases from 938 kPa (absolute) at 37° C. to 1,493 kPa (absolute) at 55° C., an increase of 59%. The pressure of Dupont Dymel HFC-227ea/P ([…]) increases from about 700 kPa (absolute) at 37° C. to 1,000 kPa (absolute) at 55° C., an increase of 42%. In order to minimize the effect of temperature fluctuations on the propellants, a number of methods can be employed. In one embodiment, an insulating material can be used to decrease the sensitivity to changes in ambient temperature by insulating the propellant and drug reservoirs with materials of low thermal conductivity. Materials such as closed cell neoprene foams, can be used in this embodiment. In another embodiment, a material with very low thermal conductivity can be utilized, such as a ceramic.

[3] = in vivo; cited from earlier work
[4] = tested on: mouth of healthy subject; format: in vivo
Description: The infusion was made into the cheek pouch of the lower left jaw, between the gum and the cheek. The pump infused the drug for 8 hours over a total period of 9 hours and 10 minutes.
The solution was infused using a Cane CronoPAR pump. […] The drug infusion was continuous, but was stopped during lunch for a period of 70 minutes. According to the manual, the Cane CronoPAR pump infuses the drug in boluses of 22 μL. […] Lodosyn tablets (25 mg carbidopa) were taken orally twice during the infusion period, for a total dose of 50 mg carbidopa.
The solution was infused in the cheek pouch of the lower right jaw, i.e., between the gum and the cheek.
(§1) The solution was infused using a Cane CronoPAR pump.
The infusion was made into the cheek pouch of the lower right jaw, between the gum and the cheek. The pump infused the drug for 5 hours and 45 minutes over a total period of 7 hours and 30 minutes.
The solution was infused using a Cane CronoPAR pump. […] Pump delivery was stopped during lunch for 1 hour 45 minutes for lunch. According to the manual, the Cane CronoPAR pump infuses the drug in boluses of 22 μL.
The same healthy subject infused into their mouth about 0.69 g LD and 0.07 g carbidopa, in 3.0 mL of 1.2M LD aqueous suspension, of unknown pH. The infusion was made into the cheek pouch of the lower right jaw, between the gum and the cheek. The pump infused the drug for 8 hours and 10 minutes over a total period of 9 hours and 5 minutes.
as §1

[5] = tested on: mouth of healthy subject; experiment: Salivation and swallowing during intra-oral infusion; format: in vivo, human
Description: The subject recorded the number of times that they swallowed over two five minute periods. They swallowed 10 and 11 times during these two five minute periods, equal to an average rate of 2.1 swallows per minute. By contrast, in two other 5 minute periods when the subject was not infusing the drug, they swallowed 6 times and 5 times, equal to an average rate of 1.1 swallows per minute.
During two five-minute periods the subject recorded the number of times that they swallowed during the infusion. They swallowed 6 times during each of these two five minute periods, equal to an average rate of 1.2 swallows per minute. This is consistent with the previously measured rate of 1.1 swallows per minute observed when not infusing a drug and is half the 2.1 swallows per minute rate the subject observed when infusing LDEE.

Structure (SMILES): CCC(C)C [isopentane]
Approximate Pressure, bars at 37° C. [1]: 1.4 bars

Structure (SMILES): CC(C)(C)C [neopentane]
Approximate Pressure, bars at 37° C. [1]: 2.4 bars

Structure (SMILES): CC=CC [Example 2-butene, 2-butene]
Approximate Pressure, bars at 37° C. [1]: 3.2 bars

increase of pressure from 37° C. to 55° C. [2]: 42%
Structure (SMILES): FC(C(F)(F)F)C(F)(F)F [1,1,1,2,3,3,3 heptafluoropropane]
pressure (absolute) at 37° C. [1]: about 700 kPa | pressure (absolute) at 55° C. [1]: 1,000 kPa | Approximate Pressure, bars at 37° C. [1]: 4.6 bars

Structure (SMILES): CC(C)F [2-fluoropropane]
Approximate Pressure, bars at 37° C. [1]: 5 bars

Structure (SMILES): CC(F)F [1,1-difluoroethane]
Approximate Pressure, bars at 37° C. [1]: 8.4 bars

Structure (SMILES): CCOC [methyl ethyl ether]
Approximate Pressure, bars at 37° C. [1]: 3 bars

Structure (SMILES): Cc1ccc(C(=O)c2cc(O)c(O)c([N+](=O)[O-])c2)cc1 [Tolcapone]
plasma half-life [3]: 2 to 3 h

Structure (SMILES): CCN(CC)C(=O)/C(C#N)=C/c1cc(O)c(O)c([N+](=O)[O-])c1 [Entacapone]
plasma half-life [3]: 0.4 to 0.7 h

increase of pressure from 37° C. to 55° C. [2]: 59%
Structure (SMILES): FCC(F)(F)F [1,1,1,2 tetrafluoroethane]
pressure (absolute) at 37° C. [1]: 938 kPa | pressure (absolute) at 55° C. [1]: 1,493 kPa | Approximate Pressure, bars at 37° C. [1]: 9.3 bars

Structure (SMILES): CCCC [butane]
Approximate Pressure, bars at 37° C. [1]: 3.5 bars

Structure (SMILES): FCCF [1,2-difluoroethane]
Approximate Pressure, bars at 37° C. [1]: 1.9 bars

Structure (SMILES): FC(F)(F)CC(F)(F)F [1,1,1,3,3,3 hexafluoropropane]
Approximate Pressure, bars at 37° C. [1]: 4.0 bars

Structure (SMILES): CCCF [1-fluoropropane]
Approximate Pressure, bars at 37° C. [1]: 4.1 bars

Structure (SMILES): C=CCC [Example 1-butene, 1-butene]
Approximate Pressure, bars at 37° C. [1]: 4.2 bars

Structure (SMILES): CCC(C)F (stereo not drawn) [2-fluorobutane]
Approximate Pressure, bars at 37° C. [1]: 1.6 bars

Structure (SMILES): CCOCC [diethyl ether]
Approximate Pressure, bars at 37° C. [1]: 1.1 bars

Structure (SMILES): CCCCF [1-fluorobutane]
Approximate Pressure, bars at 37° C. [1]: 1.3 bars

Structure (SMILES): FC1(F)C(F)(F)C(F)(F)C1(F)F [octafluorocyclobutane]
Approximate Pressure, bars at 37° C. [1]: 4.3 bars

Structure (SMILES): CCC [propane]
Approximate Pressure, bars at 37° C. [1]: 12.8 bars

Structure (SMILES): C=CC [propene]
Approximate Pressure, bars at 37° C. [1]: 15.5 bars

Structure (SMILES): CCOC(=O)[C@@H](N)Cc1ccc(O)c(O)c1 [LDEE, levodopa ethyl ester]
condition of the mouth post-infusion ([4]; 24 hours post-infusion): dead, grey, peeling skin | tooth hypersensitivity ([4]; during or after infusion, healthy subject): hypersensitivity at the gum line of one tooth | time post-infusion at which the tissue appears normal ([4]; healthy subject): 4 days | irritation or discomfort in the mouth during the infusion ([4]; infusion into cheek pouch, healthy subject): no irritation or discomfort in the mouth | stimulation of salivation ([5]; during infusion): stimulated in the subject salivation | average rate of swallowing during infusion ([5]; two five minute periods): 2.1 swallows per minute
